We go through 24 compounds from patent US20190085024A1, “Alpha-Ketoamide Inhibitors Of Cysteine Proteases” (Phelix Therapeutics, priority 2017, published 2019).

For one test, the target named is Calpain. As to the kind of experiment: Calpain enzyme assay. The test is classed as biochemical. To be noted: Ki by Morrison equation; pH 7.5, 5 mM CaCl2.
A further test has as its target Cathepsin L (Homo sapiens, UniProt P07711). The test is described as follows: Cathepsin L enzyme assay. The test is classed as biochemical. The conditions noted are these: Ki by Morrison equation; pH 5.5, substrate Z-Phe-Arg-Amc; read-out: Cat L. The source says:
Two wells contained DMSO only for controls.
Velocity was converted to μM/sec.

The target of the next test is Cathepsin B (Homo sapiens, UniProt P07858). The test is described as follows: Cathepsin B enzyme assay. The conditions noted are these: Cat B (μM), Ki by Morrison equation; pH 6.0, substrate Z-Phe-Arg-Amc.

Chain of Cathepsin L (P07711 114-333, species assumed): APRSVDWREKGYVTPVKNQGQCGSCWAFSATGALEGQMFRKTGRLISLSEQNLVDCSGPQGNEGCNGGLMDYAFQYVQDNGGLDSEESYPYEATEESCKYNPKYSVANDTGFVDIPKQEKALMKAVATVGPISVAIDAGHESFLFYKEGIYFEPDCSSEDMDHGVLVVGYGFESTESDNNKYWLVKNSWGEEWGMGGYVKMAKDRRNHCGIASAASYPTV

On to `CCC(C)C(NC(=O)C(=O)C(C)NC(=O)C(Cc1ccccc1)NC(=O)Cc1ccccc1)C(=O)NC(C)(C)C(=O)O` (stereo not drawn) [PHELIX149, 12-benzyl-5-(sec-butyl)-2,2,9-trimethyl-4,7,8,11,14-pentaoxo-15-phenyl-3,6,10,13-tetraazapentadecanoic acid], for which the Ki on Calpain was greater than 100 µM; on Cathepsin L it was 816 nM; on Cathepsin B, 0.0318 µM.
Regarding `CCC(C)C(NC(=O)C(=O)C(Cc1ccccc1)NC(=O)C(Cc1ccccc1)NC(=O)Cc1ccccc1)C(=O)NC(C)(C)C(=O)O` (stereo not drawn) [PHELIX150, 9,12-dibenzyl-5-(sec-butyl)-2,2-dimethyl-4,7,8,11,14-pentaoxo-15-phenyl-3,6,10,13-tetraazapentadecanoic acid], the figures for the Ki on Calpain, on Cathepsin L and at Cathepsin B were 5.11 µM, 39.2 nM and 0.0303 µM, respectively.
On the same counts, the results for `CC[C@H](C)[C@H](NC(=O)C(=O)C(Cc1ccccc1)NC(=O)C(Cc1ccccc1)NC(=O)Cc1ccccc1)C(=O)N1CCC[C@H]1C(=O)O` (stereo partly drawn) [PHELIX156, (2-oxo-4-phenyl-3-(3-phenyl-2-(2-phenylacetamido)propanamido)butanoyl)isoleucylproline] are 9.85 µM, 1.58 nM and 0.0102 µM.
With `CC(NC(=O)C(Cc1ccccc1)NC(=O)Cc1ccccc1)C(=O)C(=O)NC(Cc1ccccc1)C(=O)NC(C)(C)C(=O)O` (stereo not drawn) [PHELIX157, 5,12-dibenzyl-2,2,9-trimethyl-4,7,8,11,14-pentaoxo-15-phenyl-3,6,10,13-tetraazapentadecanoic acid], the Ki at Calpain was 34.6 µM; at Cathepsin L, 56.2 nM; at Cathepsin B, 0.0028 µM.
As to `CCC(C)C(NC(=O)C(=O)C(C)NC(=O)C(Cc1ccccc1)NC(=O)Cc1ccc(-c2ccccc2)cc1)C(=O)NC(C)(C)C(=O)O` (stereo not drawn) [PHELIX159, 15-([1,1′-biphenyl]-4-yl)-12-benzyl-5-(sec-butyl)-2,2,9-trimethyl-4,7,8,11,14-pentaoxo-3,6,10,13-tetraazapentadecanoic acid], the Ki stood at 16.6 µM on Calpain, 2450 nM on Cathepsin L and 0.0414 µM on Cathepsin B.
The matching figures for `CC[C@H](C)[C@H](NC(=O)C(=O)C(C)(C)NC(=O)[C@H](Cc1ccccc1)NC(=O)Cc1ccccc1)C(=O)NC(C)(C)C(=O)O` [PHELIX160, 12-benzyl-5-(sec-butyl)-2,2,9,9-tetramethyl-4,7,8,11,14-pentaoxo-15-phenyl-3,6,10,13-tetraazapentadecanoic acid]: 51 µM, 63400 nM and 111 µM.
On to `CCC(C)C(NC(=O)C(=O)C(C)NC(=O)C(Cc1ccccc1)NC(=O)Cc1cccc2ccccc12)C(=O)NC(C)(C)C(=O)O` (stereo not drawn) [PHELIX163, 12-benzyl-5-(sec-butyl)-2,2,9-trimethyl-15-(naphthalen-1-yl)-4,7,8,11,14-pentaoxo-3,6,10,13-tetraazapentadecanoic acid], for which the Ki on Cathepsin L amounted to 429 nM; at Cathepsin B, 0.0485 µM.
As to `CCC(C)C(NC(=O)C(=O)C(C)NC(=O)CCNC(=O)OCc1ccccc1)C(=O)NC(C)(C)C(=O)O` (stereo not drawn) [PHELIX164, 13-(sec-butyl)-9,16,16-trimethyl-3,7,10,11,14-pentaoxo-1-phenyl-2-oxa-4,8,12,15-tetraazaheptadecan-17-oic acid], the Ki at Calpain is greater than 100 µM; on Cathepsin L, greater than 1000 nM; on Cathepsin B, 34.6 µM.
With `CCC(C)C(NC(=O)C(=O)C(C)NC(=O)C(Cc1ccc(-c2ccccc2)cc1)NC(=O)Cc1ccccc1)C(=O)NC(C)(C)C(=O)O` (stereo not drawn) [PHELIX165, 12-([1,1′-biphenyl]-4-ylmethyl)-5-(sec-butyl)-2,2,9-trimethyl-4,7,8,11,14-pentaoxo-15-phenyl-3,6,10,13-tetraazapentadecanoic acid], the values for the Ki at Cathepsin L and at Cathepsin B were 453 nM and 0.0736 µM, respectively.
On to `CC(NC(=O)C(Cc1ccccc1)NC(=O)Cc1ccccc1)C(=O)C(=O)NC(CC1CC1)C(=O)NC(C)(C)C(=O)O` (stereo not drawn) [PHELIX166, 12-benzyl-5-(cyclopropylmethyl)-2,2,9-trimethyl-4,7,8,11,14-pentaoxo-15-phenyl-3,6,10,13-tetraazapentadecanoic acid], for which the figures for the Ki at Calpain, on Cathepsin L and on Cathepsin B were greater than 100 µM, 586 nM and 0.0081 µM, respectively.
In the case of `CCC(C)C(NC(=O)C(=O)C(C)NC(=O)C(Cc1ccc(C(C)(C)C)cc1)NC(=O)Cc1ccccc1)C(=O)NC(C)(C)C(=O)O` (stereo not drawn) [PHELIX167, 5-(sec-butyl)-12-(4-(tert-butyl)benzyl)-2,2,9-trimethyl-4,7,8,11,14-pentaoxo-15-phenyl-3,6,10,13-tetraazapentadecanoic acid], the Ki at Cathepsin L turned out to be 2600 nM; at Cathepsin B, 0.273 µM.
The matching figures for `CCC(C)C(NC(=O)C(=O)C(C)NC(=O)C(Cc1ccc(C(F)(F)F)cc1)NC(=O)Cc1ccccc1)C(=O)NC(C)(C)C(=O)O` (stereo not drawn) [PHELIX168, 5-(sec-butyl)-2,2,9-trimethyl-4,7,8,11,14-pentaoxo-15-phenyl-12-(4-(trifluoro-methyl)benzyl)-3,6,10,13-tetraazapentadecanoic acid]: 1270 nM and 0.519 µM.
For the compound `CCC(C)C(NC(=O)C(=O)C(C)NC(=O)C(Cc1cccc(C(F)(F)F)c1)NC(=O)Cc1ccccc1)C(=O)NC(C)(C)C(=O)O` (stereo not drawn) [PHELIX170, 5-(sec-butyl)-2,2,9-trimethyl-4,7,8,11,14-pentaoxo-15-phenyl-12-(3-(trifluoro-methyl)benzyl)-3,6,10,13-tetraazapentadecanoic acid], the Ki on Calpain is 59.7 µM; at Cathepsin L it was 1190 nM; on Cathepsin B it was 0.022 µM.
For `CCC(C)C(NC(=O)C(=O)C(C)NC(=O)C(CC(C)C)NC(=O)Cc1ccccc1)C(=O)NC(C)(C)C(=O)O` (stereo not drawn) [PHELIX171, 5-(sec-butyl)-12-isobutyl-2,2,9-trimethyl-4,7,8,11,14-pentaoxo-15-phenyl-3,6,10,13-tetraazapentadecanoic acid], the results for the Ki at Calpain, at Cathepsin L and on Cathepsin B were 3.9 µM, 632 nM and 0.56 µM, respectively.
Take `CCC(C)C(NC(=O)C(=O)C(C)NC(=O)C(Cc1ccc(F)cc1)NC(=O)Cc1ccccc1)C(=O)NC(C)(C)C(=O)O` (stereo not drawn) [PHELIX172, 5-(sec-butyl)-12-(4-fluorobenzyl)-2,2,9-trimethyl-4,7,8,11,14-pentaoxo-15-phenyl-3,6,10,13-tetraazapentadecanoic acid]: the Ki on Cathepsin L was 520 nM; on Cathepsin B, 0.0746 µM.
Regarding `CCC(C)C(NC(=O)C(=O)C(C)NC(=O)[C@H](Cc1cncs1)NC(=O)Cc1ccccc1)C(=O)NC(C)(C)C(=O)O` (stereo partly drawn) [PHELIX173, (12S)-5-(sec-butyl)-2,2,9-trimethyl-4,7,8,11,14-pentaoxo-15-phenyl-12-(thiazol-5-ylmethyl)-3,6,10,13-tetraazapentadecanoic acid], the Ki is greater than 100 µM at Calpain, 3330 nM on Cathepsin L and 0.72 µM at Cathepsin B.
Consider `CC[C@H](C)[C@H](NC(=O)C(=O)C(Cc1ccccc1)NC(=O)C(Cc1ccccc1)NC(=O)Cc1ccccc1)C(=O)N1CSCC1C(=O)O` (stereo partly drawn) [PHELIX174, 3-((2-oxo-4-phenyl-3-(3-phenyl-2-(2-phenylacetamido)propanamido)butanoyl)isoleucyl)thiazolidine-4-carboxylic acid], for which the Ki on Cathepsin L was determined as 461 nM; on Cathepsin B, 0.157 µM.
As for `CCC(C)C(NC(=O)C(=O)C(C)NC(=O)C(Cc1cccc(C)c1)NC(=O)Cc1ccccc1)C(=O)NC(C)(C)C(=O)O` (stereo not drawn) [PHELIX175, 5-(sec-butyl)-2,2,9-trimethyl-12-(3-methylbenzyl)-4,7,8,11,14-pentaoxo-15-phenyl-3,6,10,13-tetraazapentadecanoic acid], the Ki at Cathepsin L was 108 nM; at Cathepsin B, 0.0069 µM.
On the same counts, the results for `CCC(C)C(NC(=O)C(=O)C(C)NC(=O)C(Cc1cccc(C#N)c1)NC(=O)Cc1ccccc1)C(=O)NC(C)(C)C(=O)O` (stereo not drawn) [PHELIX176, 5-(sec-butyl)-12-(3-cyanobenzyl)-2,2,9-trimethyl-4,7,8,11,14-pentaoxo-15-phenyl-3,6,10,13-tetraazapentadecanoic acid] are 2690 nM and 0.0378 µM.
The matching figures for `CC(NC(=O)C(Cc1ccccc1)NC(=O)Cc1ccccc1)C(=O)C(=O)NC(CC1CCCCC1)C(=O)NC(C)(C)C(=O)O` (stereo not drawn) [PHELIX177, 12-benzyl-5-(cyclohexylmethyl)-2,2,9-trimethyl-4,7,8,11,14-pentaoxo-15-phenyl-3,6,10,13-tetraazapentadecanoic acid]: 92.2 nM and 0.0012 µM.
The matching figures for `CC(NC(=O)C(Cc1ccccc1)NC(=O)Cc1ccccc1)C(=O)C(=O)N[C@@H](Cc1ccccc1)C(=O)N1CCC[C@H]1C(=O)O` (stereo partly drawn) [PHELIX178, (2-oxo-3-(3-phenyl-2-(2-phenylacetamido)propanamido)butanoyl)phenylalanyl proline]: 38.5 nM and 0.0067 µM.
Take `CCC(C)C(NC(=O)C(=O)C(C)NC(=O)C(Cc1ccccc1)NC(=O)Cc1ccccc1)C(=O)NC(C)(C)C(=O)OC` (stereo not drawn) [PHELIX179, methyl 12-benzyl-5-(sec-butyl)-2,2,9-trimethyl-4,7,8,11,14-pentaoxo-15-phenyl-3,6,10,13-tetraazapentadecanoate]: the Ki at Cathepsin L was determined as 881 nM; on Cathepsin B, 17.8 µM.
Consider `CC(NC(=O)C(Cc1ccccc1)NC(=O)Cc1ccccc1)C(=O)C(=O)NC(Cc1ccc(C(C)(C)C)cc1)C(=O)NC(C)(C)C(=O)O` [PHELIX180, (5S,12)S-12-benzyl-5-(4-(tert-butyl)benzyl)-2,2,9-trimethyl-4,7,8,11,14-pentaoxo-15-phenyl-3,6,10,13-tetraazapentadecanoic acid], for which the Ki was found to be 127 nM at Cathepsin L and 0.197 µM on Cathepsin B.
As for `CCCC(NC(=O)C(=O)C(C)NC(=O)C(Cc1ccccc1)NC(=O)Cc1ccccc1)C(=O)NC(C)(C)C(N)=O` (stereo not drawn) [PHELIX243, N-(1-amino-2-methyl-1-oxopropan-2-yl)-2-(2-oxo-3-(3-phenyl-2-(2-phenylacetamido)propanamido)butanamido)pentanamide], the values for the Ki on Calpain, at Cathepsin L and on Cathepsin B were greater than 10 µM, 5580 nM and greater than 10 µM, respectively.
